{"source": "patent US20230256049A1", "about": "“MATERIALS AND METHODS FOR THE PREVENTION AND TREATMENT OF VIRAL RESPIRATORY DISEASES” (priority 2020, published 2023)", "key": {"SARS-CoV-2": {"test_system": "SARS-CoV-2", "conditions": "cited from earlier work; for treatment outcome in SARS-CoV-2 / COVID-19 patients: remdesivir: double-blind, randomized, placebo-controlled trial in hospitalized adults; for patient morbidity risk: treatment of SARS-CoV-2"}, "[1]": {"test_system": "HIV-1 (primary R5 JR-CSF)", "assay": "HIV-1 in vitro model, HeLa TZM reporter cells (alanine scan)", "type": "cell-based", "conditions": "β-galactosidase at 48 h"}, "[2]": {"test_system": "SARS-CoV-2 (2019-nCoV/USA-WA1/2020 strain)", "conditions": "VERO E6 (FIG. 5C)"}, "[3]": {"test_system": "SARS-CoV-2 (2019-nCoV/USA-WA1/2020 strain)"}}, "note": "pEC50: −log10 of the molar value. Read-outs that look alike come from different tables or passages of the source. Where a SMILES comes first, the peptide text is derived from it. [ ]: non-standard residue; d: D form."}
{"smiles": "CCN(CCO)CCCC(C)Nc1ccnc2cc(Cl)ccc12", "note": "(stereo not drawn) [hydroxychloroquine]", "values": [{"measurement": "treatment outcome in SARS-CoV-2 / COVID-19 patients", "setting": "SARS-CoV-2", "result": "failed"}, {"measurement": "patient morbidity risk", "setting": "SARS-CoV-2", "result": "increased patient morbidity risk"}]}
{"smiles": "CC[C@H](C)[C@H](NC(=O)[C@H](CC(=O)O)NC(=O)[C@H](CCCNC(=N)N)NC(=O)[C@H](CC(C)C)NC(=O)[C@H](Cc1c[nH]c2ccccc12)NC(=O)[C@@H](N)CO)C(=O)N[C@@H](Cc1c[nH]c2ccccc12)C(=O)N[C@@H](CC(=O)O)C(=O)N[C@@H](Cc1c[nH]c2ccccc12)C(=O)N[C@H](C(=O)N[C@@H](CS)C(=O)N[C@@H](CCC(=O)O)C(=O)N[C@H](C(=O)N[C@@H](CC(C)C)C(=O)N[C@@H](CO)C(=O)N[C@@H](CC(=O)O)C(=O)N[C@@H](Cc1ccccc1)C(=O)N[C@@H](CCCCN)C(=O)O)C(C)C)[C@@H](C)CC", "note": "[Peptide 346-001, SWLRDIWDWICEVLSDFK] (H-SWLRDIWDWICEVLSDFK-OH; N-terminus and C-terminus assumed)", "values": [{"measurement": "antiviral activity against HIV-1 (in vitro HIV-1 inhibition)", "setting": "[1]", "result": "effective against HIV-1"}, {"measurement": "reduction on viral copy numbers", "setting": "[2]; 50 μM dosing concentration", "result": "> 5 orders of magnitude"}, {"measurement": "reduction on viral copy numbers", "setting": "[2]; 125 μM dosing concentration", "result": "> 7 orders of magnitude"}]}
{"smiles": "CC[C@@H](C)[C@@H](NC(=O)[C@@H](CC(=O)O)NC(=O)[C@@H](CCCNC(=N)N)NC(=O)[C@@H](CC(C)C)NC(=O)[C@@H](Cc1c[nH]c2ccccc12)NC(=O)[C@H](N)CO)C(=O)N[C@H](Cc1c[nH]c2ccccc12)C(=O)N[C@H](CC(=O)O)C(=O)N[C@H](Cc1c[nH]c2ccccc12)C(=O)N[C@@H](C(=O)N[C@H](CS)C(=O)N[C@H](CCC(=O)O)C(=O)N[C@@H](C(=O)N[C@H](CC(C)C)C(=O)N[C@H](CO)C(=O)N[C@H](CC(=O)O)C(=O)N[C@H](Cc1ccccc1)C(=O)N[C@H](CCCCN)C(=O)O)C(C)C)[C@H](C)CC", "note": "[Peptide 346-002, swlrdiwdwicevlsdfk] (H-[dS][dW][dL][dR][dD][dI][dW][dD][dW][dI][dC][dE][dV][dL][dS][dD][dF][dK]-OH; N-terminus and C-terminus assumed)", "values": [{"measurement": "pEC50", "setting": "[3]; 2019-nCoV/USA-WA1/2020 strain, 48 h", "result": 4.89}]}
{"smiles": "CC[C@H](C)[C@H](NC(=O)[C@H](CC(C)C)NC(=O)[C@H](CC(=O)O)NC(=O)[C@@H](NC(=O)[C@H](Cc1c[nH]c2ccccc12)NC(=O)[C@H](CC(=O)O)NC(=O)[C@H](CCCNC(=N)N)NC(=O)[C@H](Cc1c[nH]c2ccccc12)NC(=O)[C@@H](NC(=O)[C@@H](N)CO)[C@@H](C)CC)C(C)C)C(=O)N[C@@H](CS)C(=O)N[C@@H](CCC(=O)O)C(=O)N[C@@H](Cc1ccccc1)C(=O)N[C@@H](CC(C)C)C(=O)N[C@@H](CO)C(=O)N[C@@H](CC(=O)O)C(=O)N[C@@H](Cc1c[nH]c2ccccc12)C(=O)N[C@@H](CCCCN)C(=O)O", "note": "[Peptide 346-007, SIWRDWVDLICEFLSDWK] (H-SIWRDWVDLICEFLSDWK-OH; N-terminus and C-terminus assumed)", "values": [{"measurement": "potency relative to the other peptides tested", "setting": "[3]", "result": "ca. double the potency of the other peptides tested"}]}
{"smiles": "CCN(CC)CCCC(C)Nc1ccnc2cc(Cl)ccc12", "note": "(stereo not drawn) [chloroquine]", "values": [{"measurement": "treatment outcome in SARS-CoV-2 / COVID-19 patients", "setting": "SARS-CoV-2", "result": "failed"}, {"measurement": "patient morbidity risk", "setting": "SARS-CoV-2", "result": "increased patient morbidity risk"}]}
